A short description of the series: in vitro. Particulars: human, hela cells, % viability.
In general, viability refers to a read-out of living cells in per cent, often relative to untreated cells. Consider `Cc1ccc(C2C(C(=O)c3cccs3)=C(O)C(=O)N2CCN2CCOCC2)o1` (stereo not shown) [CBK264559], for which the viability at 28.5 h, 10 µM was determined as 91.1%. In the case of `O=C(NCCCO)c1ccc(/C=N/O)nc1` [CBK264560] it was 97.7%; in that of `COc1ccc(OC(=O)c2cc(S(=O)(=O)N3CCCCCC3)ccc2Cl)cc1` [CBK264562], 95.9%. As for `CC1(C)CC(NCC(O)COc2cc(C(C)(C)C)c(O)c(C(C)(C)C)c2)CC(C)(C)N1` (stereo not shown) [CBK264564], the figure is 124%; as for `CCOC(=O)c1c(NC(=O)CN2CC(C)OC(C)C2)sc2c1CCC(C)C2` (stereo not shown) [CBK264572], 107%; as for `Cc1ccc(NC(=S)N2CCN(C/C=C/c3ccccc3)CC2)cc1` [CBK264574], 98.9%. As to `O=C(O)c1cc(S(=O)(=O)N2CCOCC2)c(Cl)cc1NC1CCCCC1` [CBK264576], the viability at 28.5 h, 10 µM came to 97.8%. As for `CCN(CC)S(=O)(=O)c1ccc(C)c(C(=O)Oc2cccc(-c3cnc4ccccc4n3)c2)c1` [CBK264577], the figure is 85.8%. As for `CC1(C)NC(=O)N(CC(O)CN(C2CCCCC2)C2CCCCC2)C1=O` (stereo not shown) [CBK264578], the figure is 101%; as for `CCOc1ccc(-n2c(SCc3nc4ccccc4[nH]3)nc3sc4c(c3c2=O)CCCC4)cc1` [CBK264581], 103%. As for `CC(NC(=O)/C(=C\c1ccc(Cl)cc1)NC(=O)c1ccccc1Br)C(=O)O` (stereo not shown) [CBK264582], the figure is 91.4%. Regarding `CN(C)CCN1C(=O)C(O)=C(C(=O)c2cccs2)C1c1ccc([N+](=O)[O-])cc1` (stereo not shown) [CBK264584], the viability at 28.5 h, 10 µM was 92.6%. Take `O=C(Nc1cccc2ccccc12)/C(=C\c1ccco1)NC(=O)c1ccc(Br)cc1` [CBK264587]: the viability at 28.5 h, 10 µM was 104%.

Take `CN(C)CCCN1C(=O)C(O)=C(C(=O)c2ccc(Br)cc2)C1c1cccnc1` (stereo not shown) [CBK264589]: the viability at 28.5 h, 10 µM was determined as 105%. As for `O=C(C1=C(O)C(=O)N(CCCn2ccnc2)C1c1cccc([N+](=O)[O-])c1)c1cccs1` (stereo not shown) [CBK264591], the figure is 95.9%; as for `O=C(CC1S/C(=N/N=C/c2ccc(-c3cc([N+](=O)[O-])ccc3Cl)o2)NC1=O)Nc1ccccc1` (stereo not shown) [CBK264592], 95.3%; as for `Cc1ccc(C(=O)C2=C(O)C(=O)N(Cc3cccnc3)C2c2cccc([N+](=O)[O-])c2)cc1` (stereo not shown) [CBK264593], 89.3%.

With `Cc1sc2nc(SCc3nc4ccccc4[nH]3)n(-c3ccc(Cl)c(Cl)c3)c(=O)c2c1C` [CBK264594], the viability at 28.5 h, 10 µM was determined as 102%. Consider `COc1c(Cl)ccc(Cl)c1C(=O)OCC(=O)O` [CBK264596], for which the viability at 28.5 h, 10 µM was determined as 115%.

As for `COc1ccc(C2=NN(c3ccc([N+](=O)[O-])cc3)C(=O)/C2=C/NCc2ccc3c(c2)OCO3)cc1` [CBK264598], the viability at 28.5 h, 10 µM is 84.1%. As for `S=C(NCCCN1CCOCC1)Nc1ccccc1Cl` [CBK264599], the figure is 100%; as for `O=C(C1=C(O)C(=O)N(CCCn2ccnc2)C1c1ccncc1)c1ccc(F)cc1` (stereo not shown) [CBK264601], 93.7%; as for `O=C(CN(c1cc(C(F)(F)F)ccc1Cl)S(=O)(=O)c1ccccc1)NCc1cccnc1` [CBK264607], 94.4%.

As for `C1=CC2CC1CC2CN1CCC(N(CCc2ccccc2)Cc2ccccc2)CC1` (stereo not shown) [CBK264613G], the viability at 28.5 h, 10 µM stood at 87.7%.

In the case of `CCOc1cc(/C=C2\SC(=S)N(Cc3cccnc3)C2=O)ccc1OCc1cccc(F)c1` [CBK264615], the viability at 28.5 h, 10 µM turned out to be 112%. As for `O=C(COc1ccccc1/C=C1/NC(=O)NC1=O)Nc1ccccc1` [CBK264620], the figure is 99.3%; as for `O=[N+]([O-])c1ccc(CN2CCC(N3CCN(CCO)CC3)CC2)cc1` [CBK264621G], 92.6%; as for `CN(Cc1ccccc1)C1CCN(Cc2ccccn2)CC1` [CBK264622G], 107%. As for `COc1cc(/C=C2\SC(=S)N(Cc3cccnc3)C2=O)ccc1OCc1cccc2ccccc12` [CBK264624], the figure is 112%. As for `CCOc1ccccc1NC(=O)CN(c1cc(C(F)(F)F)ccc1Cl)S(C)(=O)=O` [CBK264627], the viability at 28.5 h, 10 µM was found to be 84.7%.

Take `O=C(CN1C(=O)S/C(=C\c2ccccc2OCc2ccccc2)C1=O)c1ccc(Cl)cc1` [CBK264628]: the viability at 28.5 h, 10 µM was found to be 92.5%. In the case of `Cc1cc(C)nc(SCc2nc3ccc([N+](=O)[O-])cc3[nH]2)n1` [CBK264634] it was 85.3%; in that of `COc1ccc(C(=O)C2=C(O)C(=O)N(Cc3cccnc3)C2c2ccc(N(C)C)cc2)cc1` (stereo not shown) [CBK264635], 85.9%. In the case of `O=C(O)c1ccc(COc2ccc(/C=C3\SC(=S)N(Cc4cccnc4)C3=O)cc2)cc1` [CBK264637] it was 101%. As for `O=S(=O)(NC1c2cccc3cccc(c23)C1Sc1ncccn1)c1ccc(Cl)cc1` (stereo not shown) [CBK264638], the figure is 94.3%; as for `CC1CC(C)CN(C2CCN(Cc3ccccn3)CC2)C1` (stereo not shown) [CBK264639G], 99.4%; as for `O=C(c1cc(-c2ccc(Cl)cc2)nc2ccccc12)n1nnc2ccccc21` [CBK264640], 101%.

For the compound `O=C(CSc1nc2cccnc2[nH]1)Nc1cc(Cl)ccc1Cl` [CBK264644], the viability at 28.5 h, 10 µM was found to be 101%. As for `COC(=O)c1ccc(NC(=O)CC2Sc3ccc(C(F)(F)F)cc3NC2=O)cc1` (stereo not shown) [CBK264645], the figure is 110%; as for `O=C(C(Cc1ccccc1)N1C(=O)C2CCCCC2C1=O)N1CCN(Cc2ccc3c(c2)OCO3)CC1` (stereo not shown) [CBK264648], 102%; as for `CCOc1ccc(C(=O)C2=C(O)C(=O)N(CCN3CCOCC3)C2c2ccc(N(C)C)cc2)c(C)c1` (stereo not shown) [CBK264650], 92.7%. With `Cc1cccc(OCc2nnc(SCC(=O)NC3CCCCC3)o2)c1` [CBK264652], the viability at 28.5 h, 10 µM is 96.3%. Regarding `CC(=O)Nc1ccc(S(=O)(=O)N2CCC(N3CCOCC3)CC2)cc1` [CBK264653G], the viability at 28.5 h, 10 µM was determined as 116%. As for `CCN(Cc1ccccc1)C1CCN(Cc2cccc(OC)c2)CC1` [CBK264654G], the figure is 99.2%. As for `COc1cc(CN2CCC(N3CCN(c4ccccc4)CC3)CC2)ccc1OCc1ccccc1` [CBK264655G], the figure is 95.6%; as for `Cc1ccc(S(=O)(=O)N2CCC(N3CCN(CCO)CC3)CC2)cc1` [CBK264656G], 96.8%. As for `COc1ccc(C(=O)C2=C(O)C(=O)N(Cc3cccnc3)C2c2cccc([N+](=O)[O-])c2)cc1` (stereo not shown) [CBK264661], the figure is 99.5%; as for `CN(C)CC(=O)Nc1ccc(Br)cc1C(=O)c1ccccc1Cl` [CBK264663F], 91.4%; as for `O=C(CN(Cc1ccccc1)S(=O)(=O)c1cc(Cl)ccc1Cl)Nc1cccc(F)c1` [CBK264664], 89.3%.

As for `CN(C)S(=O)(=O)c1ccc(C(=O)C2=C(O)C(=O)N(Cc3cccnc3)C2c2ccccc2)cc1` (stereo not shown) [CBK264667], the viability at 28.5 h, 10 µM was determined as 100%. In the case of `CN(C)CCN1C(=O)C(O)=C(C(=O)c2ccc(S(=O)(=O)N3CCOCC3)cc2)C1c1ccccc1` (stereo not shown) [CBK264668] it was 100%; in that of `CC(Sc1ccc(Cl)cc1)C(=O)Nc1ccc(CSc2ccccc2)cc1` (stereo not shown) [CBK264670], 93.2%. As for `O=C(O)c1ccc(COc2ccc(/C=C3\SC(=S)N(Cc4cccnc4)C3=O)cc2Cl)cc1` [CBK264672], the viability at 28.5 h, 10 µM stood at 91.9%.

Consider `O=C1/C(=C/c2ccc3c(c2)OCO3)SC(=S)N1CCCC(=O)N1CCCc2ccccc21` [CBK264676], for which the viability at 28.5 h, 10 µM was 98.2%. In the case of `O=C(NC(Cc1ccccc1)C(=O)O)c1ccc(Cl)cc1` (stereo not shown) [CBK264677] it was 96.1%. In the case of `CC1=NN(c2ccc(S(N)(=O)=O)cc2)C(=O)/C1=C/c1ccc(-c2ccc3c(c2)COC3=O)o1` [CBK264678], the viability at 28.5 h, 10 µM came to 95.6%.

`CN(C)CCN1C(=O)C(O)=C(C(=O)c2ccc(S(=O)(=O)N3CCOCC3)cc2)C1c1ccc(F)cc1` (stereo not shown) [CBK264683]: the viability at 28.5 h, 10 µM is 104%. `c1ccc(N2CCN(C3CCN(Cc4ccccn4)CC3)CC2)cc1` [CBK264684G]: the viability at 28.5 h, 10 µM was 110%. As for `Cc1nc(N2CCOCC2)nc(Nc2ccc(Cl)cc2)c1[N+](=O)[O-]` [CBK264685], the figure is 87.5%; as for `Clc1cccc(CN2CCC(N3CCN(c4ccccc4)CC3)CC2)c1` [CBK264690G], 98.7%; as for `CN(C)CCN1C(=O)C(O)=C(C(=O)c2ccc(S(=O)(=O)N3CCOCC3)cc2)C1c1ccc(Br)cc1` (stereo not shown) [CBK264693], 93.5%.

Regarding `CC1CC(C)CN(C(=O)Cn2c(-c3nonc3N)nc3ccccc32)C1` (stereo not shown) [CBK264694], the viability at 28.5 h, 10 µM came to 89.7%. As for `O=C(C1=C(O)C(=O)N(Cc2cccnc2)C1c1cccc(Oc2ccccc2)c1)c1ccc(Cl)cc1` (stereo not shown) [CBK264698], the figure is 86.6%; as for `O=C(Cn1c(-c2cncs2)nc2ccccc21)NCc1ccc2c(c1)OCO2` [CBK264699], 95.5%.

Take `CN(C)S(=O)(=O)c1ccc(C(=O)C2=C(O)C(=O)N(CCN3CCCCC3)C2c2cccnc2)cc1` (stereo not shown) [CBK264700]: the viability at 28.5 h, 10 µM was 99.9%. As for `Cc1ccccc1OCC(=O)Oc1ccc(-c2cnc3ccccc3n2)cc1` [CBK264703], the figure is 100%; as for `COc1cc(C(=O)Nc2cc(-c3nc4ncccc4o3)ccc2C)ccc1OCc1ccc(Cl)cc1` [CBK264704], 112%. As for `O=C(Cn1c(-c2cncs2)nc2ccccc21)NCc1ccccc1` [CBK264705], the figure is 103%; as for `O=S(=O)(NC1c2cccc3cccc(c23)C1Sc1ncccn1)c1ccccc1` (stereo not shown) [CBK264706], 103%. As to `Cn1cnnc1SC1c2cccc3cccc(c23)C1NS(=O)(=O)c1ccc(Cl)cc1` (stereo not shown) [CBK264707], the viability at 28.5 h, 10 µM stood at 98.2%.

For the compound `Cc1ccc(OC(=O)CCC(=O)Nc2ccc(S(N)(=O)=O)cc2)cc1` [CBK264708], the viability at 28.5 h, 10 µM turned out to be 95.1%. In the case of `CN(C)S(=O)(=O)c1ccc(C(=O)C2=C(O)C(=O)N(Cc3cccnc3)C2c2ccncc2)cc1` (stereo not shown) [CBK264714] it was 95.4%; in that of `O=C(CC1Sc2ccccc2NC1=O)Nc1ccc([N+](=O)[O-])c(F)c1` (stereo not shown) [CBK264717], 85.5%.

The values are drawn from paper PMC12040169 (PLOS Biology, 2025).
